Here are results for one molecule from patent US20080146538A1, “Compounds 614” (priority 2006, published 2008).

In data set [1] the target is T1, human NK3 receptor (Homo sapiens, UniProt P29371).
T1 construct: expressed in transfected cells
T1 sequence (P29371 1-465): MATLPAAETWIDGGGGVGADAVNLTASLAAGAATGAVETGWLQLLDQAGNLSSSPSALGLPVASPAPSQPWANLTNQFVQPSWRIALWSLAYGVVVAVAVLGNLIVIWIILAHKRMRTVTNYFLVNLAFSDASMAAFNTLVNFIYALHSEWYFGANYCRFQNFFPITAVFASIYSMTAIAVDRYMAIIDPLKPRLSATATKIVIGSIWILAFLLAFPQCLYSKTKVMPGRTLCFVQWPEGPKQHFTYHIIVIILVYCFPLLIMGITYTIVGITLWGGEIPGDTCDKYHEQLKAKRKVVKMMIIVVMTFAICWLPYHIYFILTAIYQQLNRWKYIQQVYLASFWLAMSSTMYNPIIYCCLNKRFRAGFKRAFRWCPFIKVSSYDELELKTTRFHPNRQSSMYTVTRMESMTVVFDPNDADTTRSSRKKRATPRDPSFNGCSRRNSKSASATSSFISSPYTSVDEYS
Briefly: FLIPR assay, inhibition of human NK3 receptor activation (intracellular Ca2+). Type of data set: cell-based. As to the method:
(§1) Chinese Hamster Ovary (CHO) K1 cells (obtained from ATCC) were stably transfected with the human NK2 receptor (hNK2R cDNA in pRc/CMV, Invitrogen) or the human NK3 receptor (hNK3R in pcDNA 3.1/Hygro (+)/IRES/CD8, Invitrogen vector modified at AstraZeneca EST-Bio UK, Alderley Park). The cells were transfected with the cationic lipid reagent LIPOFECTAMINE™ (Invitrogen) and selection was performed with Geneticin (G418, Invitrogen) at 1 mg/ml for the hNK2R transfected cells and with Hygromycin (Invitrogen) at 500 μg/ml for the hNK3R transfected cells. Single cell clones were collected by aid of Fluorescence Activated Cell Sorter (FACS), tested for functionality in a FLIPR assay (see below), expanded in culture and cryopreserved for future use. […]
(§2) The activity of a compound of the invention to inhibit NK1/NK2/NK3 receptor activation measured as NK1/NK2/NK3 receptor mediated increase in intracellular Ca^2+ was assessed by the following procedure:
(§3) CHO cells stably transfected with human NK1, NK2 or NK3 receptors were plated in black walled/clear bottomed 96-well plates (Costar 3904) at 3.5×10^4 cells per well and grown for approximately 24 h in normal growth media in a 37° C. […] The response was measured as the peak relative fluorescence after agonist addition and IC50s were calculated from ten-point concentration-response curves for each compound. […]

The target in data set [2] is hERG-encoded potassium channel (Homo sapiens, UniProt Q12809). Briefly: Activity against hERG (planar-array-based voltage clamp). It counts as cell-based. From the text:
The activity of compounds according to formula I against the hERG-encoded potassium channel can be determined according to Kiss L, et al. Assay Drug Dev Technol. 1 (2003), 127-35: “High throughput ion-channel pharmacology: planar-array-based voltage clamp”.
On the technique in general: The hERG channel carries a current that helps repolarise heart muscle cells.

Data set [3] is described as follows: Metabolic stability in liver microsomes (intrinsic clearance). It counts as in vitro ADME. The note with it: human, pH 7.4, HLM. As to the method: The metabolic stability of compounds according to formula I can be determined as described below: The rate of biotransformation can be measured as either metabolite(s) formation or the rate of disappearance of the parent compound. The experimental design involves incubation of low concentrations of substrate (usually 1.0 μM) with liver microsomes (usually 0.5 mg/ml) and taking out aliquotes at varying time points (usually 0, 5, 10, 15, 20, 30, 40 min.). The test compound is usually dissolved in DMSO. The DMSO concentration in the incubation mixture is usually 0.1% or less since more solvent can drastically reduce the activities of some CYP450s. Incubations are done in 100 mM potassium phosphate buffer, pH 7.4 and at 37° C. Acetonitrile or methanol is used to stop the reaction. The parent compound is analysed by HPLC-MS. From the calculated half-life, t1/2, the intrinsic clearance, Clint, is estimated by taking microsomal protein concentration and liver weight is into account.
For orientation: Liver microsomes are a subcellular fraction often used to study metabolism.

The target in data set [4] is T2, human NK2 receptor (Homo sapiens, UniProt P21452).
T2 construct: expressed in transfected cells
T2 sequence (P21452 1-398): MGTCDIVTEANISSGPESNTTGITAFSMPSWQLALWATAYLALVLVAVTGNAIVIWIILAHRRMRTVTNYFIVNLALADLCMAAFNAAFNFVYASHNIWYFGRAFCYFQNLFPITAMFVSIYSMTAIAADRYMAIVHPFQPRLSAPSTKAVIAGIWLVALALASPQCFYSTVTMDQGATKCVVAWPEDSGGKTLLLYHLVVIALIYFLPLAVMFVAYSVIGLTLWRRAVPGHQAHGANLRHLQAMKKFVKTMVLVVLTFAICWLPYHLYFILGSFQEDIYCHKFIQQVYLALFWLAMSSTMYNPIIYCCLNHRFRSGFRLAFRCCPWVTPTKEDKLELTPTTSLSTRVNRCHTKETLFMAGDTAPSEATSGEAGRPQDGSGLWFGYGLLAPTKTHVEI
Briefly: FLIPR assay, inhibition of human NK2 receptor activation (intracellular Ca2+). Type of data set: cell-based. As to the method: as §1, §2, §3

For data set [5], the target named is T3, human NK1 receptor (Homo sapiens, UniProt P25103).
T3 construct: Human NK1 receptor cDNA (obtained from RNA-PCR from lung tissue) was subcloned into pRcCMV (Invitrogen); expressed in transfected cells
T3 sequence (P25103 whole entry): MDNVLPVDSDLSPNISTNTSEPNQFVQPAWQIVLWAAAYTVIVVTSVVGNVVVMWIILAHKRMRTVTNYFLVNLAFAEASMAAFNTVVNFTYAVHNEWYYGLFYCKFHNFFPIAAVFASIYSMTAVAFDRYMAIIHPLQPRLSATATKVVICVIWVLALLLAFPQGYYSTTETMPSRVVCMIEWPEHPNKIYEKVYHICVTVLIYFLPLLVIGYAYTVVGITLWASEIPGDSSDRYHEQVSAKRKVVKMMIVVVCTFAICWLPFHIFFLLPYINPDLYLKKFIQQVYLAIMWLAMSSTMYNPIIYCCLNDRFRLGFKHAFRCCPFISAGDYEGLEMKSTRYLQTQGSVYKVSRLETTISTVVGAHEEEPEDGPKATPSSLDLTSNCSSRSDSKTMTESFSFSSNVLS
Briefly: FLIPR assay, inhibition of human NK1 receptor activation (intracellular Ca2+). It counts as cell-based. As to the method:
as §1, §2, §3

Counter-ions that a name gives are not always drawn.

Chain of hERG-encoded potassium channel (Q12809 whole entry): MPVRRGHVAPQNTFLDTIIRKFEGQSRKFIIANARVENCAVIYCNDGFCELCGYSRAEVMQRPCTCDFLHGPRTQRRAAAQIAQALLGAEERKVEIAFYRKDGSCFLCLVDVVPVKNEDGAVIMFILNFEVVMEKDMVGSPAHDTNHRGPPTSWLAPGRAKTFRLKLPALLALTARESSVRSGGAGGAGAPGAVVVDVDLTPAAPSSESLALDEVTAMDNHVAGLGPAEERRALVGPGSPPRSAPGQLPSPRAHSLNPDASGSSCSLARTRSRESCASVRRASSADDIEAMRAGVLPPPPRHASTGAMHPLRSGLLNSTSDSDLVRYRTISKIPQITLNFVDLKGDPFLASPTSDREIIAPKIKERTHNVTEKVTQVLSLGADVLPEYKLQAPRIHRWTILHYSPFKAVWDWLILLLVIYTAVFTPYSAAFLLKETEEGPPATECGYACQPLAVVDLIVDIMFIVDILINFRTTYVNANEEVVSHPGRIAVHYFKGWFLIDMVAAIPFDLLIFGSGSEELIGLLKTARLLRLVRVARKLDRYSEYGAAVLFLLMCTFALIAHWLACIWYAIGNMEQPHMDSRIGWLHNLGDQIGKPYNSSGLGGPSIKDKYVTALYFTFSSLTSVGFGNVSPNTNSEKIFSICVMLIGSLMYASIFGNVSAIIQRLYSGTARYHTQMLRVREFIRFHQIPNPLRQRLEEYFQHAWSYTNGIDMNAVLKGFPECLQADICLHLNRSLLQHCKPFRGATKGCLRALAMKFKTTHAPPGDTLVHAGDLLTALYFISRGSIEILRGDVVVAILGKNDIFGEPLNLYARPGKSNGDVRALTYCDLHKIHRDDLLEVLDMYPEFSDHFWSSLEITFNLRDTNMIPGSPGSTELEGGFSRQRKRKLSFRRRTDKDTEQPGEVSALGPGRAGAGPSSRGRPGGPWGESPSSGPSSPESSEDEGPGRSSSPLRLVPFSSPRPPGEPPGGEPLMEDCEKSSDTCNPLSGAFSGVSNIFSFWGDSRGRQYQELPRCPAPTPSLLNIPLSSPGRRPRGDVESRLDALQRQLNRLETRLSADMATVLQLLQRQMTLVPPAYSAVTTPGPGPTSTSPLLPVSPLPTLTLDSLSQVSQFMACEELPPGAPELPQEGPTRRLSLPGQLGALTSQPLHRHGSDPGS

`CN(C[C@@H](CCN1CC(N2[C@@H]3CC[C@H]2CC(O)C3)C1)c1ccc(F)cc1)C(=O)c1cc(Br)cc(C(F)(F)F)c1` (stereo partly drawn) [Ex 1, exo-3-Bromo-N-((2S)-2-(4-fluorophenyl)-4-{3-(3-hydroxy-8-azabicyclo[3.2.1]oct-8-yl)azetidin-1-yl}butyl)-N-methyl-5-(trifluoromethyl)benzamide dihydrochloride]: the Kb in data set [1] is 12.6 nM; in data set [4], 7.94 nM; in data set [5], 7.94 nM. For the same molecule, the IC50 (commonly the concentration at which inhibition is half-maximal) in data set [2] turned out to be 13000 nM. In data set [3], the microsomal CLint (in general, the capacity of the preparation to metabolise the compound, expressed as a volume cleared per time) at 1 μM was found to be 28 µL/min/mg.
